Legend:
Assay type in all cases: cell-based, human
K562 or PANC-1 cells = experiment: Cytokine release assay: IFN-γ ELISA after co-culture of NKR-2 T cells with cancer cells; conditions: cells cultured with PI3K inhibitor (5 μM CAL101), compared with blocking NKG2D antibody
Method: Fresh NKR-2 T cells and/or control tCD19 cells were incubated with K562 or PANC-1 cells at a ratio of 1:1 in X-Vivo 15 containing 5% HS. Following an incubation of 24 h supernatants were harvested and IFN-γ measured by ELISA (R&D Systems, SIF50) according to manufacturer's protocol. As a positive control cells were activated with PMA (Sigma-Aldrich, P8139-5MG) and ionomycin (Sigma-Aldrich, 10634-1MG). To assess the background levels of activation the cells received no stimulus.
Antibody Inhibition Assay NKR-2 T cells were incubated with 1 μg/mL of NKG2D blocking antibody, isotype control or no antibody for 24 hours and subsequently NKR-2 T cells mediated secretion of IFN-γ measured. Similarly, NKR-2 cells were co-cultured with cancer cells in the presence of antibody and cytokine secretion measured.

NKG2D (CD314) = experiment: Flow cytometry of NKG2D (CD314) cell surface expression on NKR-2 T cells
Method: (§1) (A) MFI of NKG2D expression on NKR-2 T cells treated or not with increasing concentrations of LY294002. Data shown are mean±SD of N=3 independent donors. (B) Transduced T cells were cultured in complete X-vivo (100 IU/ml IL-2) supplemented or not with increasing concentrations of LY294002 for expansion. T cells were analyzed 96 h after seeding for fold expansion relative to the initial cell seeding density. Data shown are mean±SD of N=3 independent donors. (C) Viability of cells after cryopreservation. NKR-2 T cells were produced in presence of increasing concentration of LY294002. After production, cells were harvested, washed, and formulate for cryopreservation. After cryopreservation, cells were thawed using a water bath and resuspended in Plasmalyte/Human Serum Albumin (HSA) 5%. Cells viability was directly assessed after thawing (T0 h) or after 6 hours at 4° C. in Plasmalyte/HSA5% (T6 h) (N=[…]) (D) NKR-2 T cells were produced in presence of increasing concentration of LY294002. […] After 48 hours, cell viability was assessed using trypan blue staining (N=3) and normalized for the number of cells at cryopreservation (E) tCD19 T cells were co-cultured with NKR-2 T cells generated from the same donor in presence of increasing concentrations of blocking Ab (from 0 (−) to 10 μg/ml). […] Following a 24 h incubation, supernatants were harvested and IFN-γ measured (N=3). […]

NKR-2 T cells = experiment: Fold expansion / cell yield of NKR-2 (NKG2D CAR) T cells during manufacturing culture; conditions: compared to cells without inhibition of NKG2D signaling
Method: as §1, with “After cryopreservation, cells were thawed using a water bath and resuspended in Plasmalyte/Human Serum Albumin (HSA) 5%.” left out
FIG. 9: NKR-2 T cells Ab blockade process adaptation restores CD4/CD8 ratio. […] PANC-1 viability was assessed every 2 hours by the IncuCyte S3 device. […]

Compound: CC[C@H](Nc1ncnc2[nH]cnc12)c1nc2cccc(F)c2c(=O)n1-c1ccccc1 [Cal-101, idelalisib]
- IFN gamma secretion post co-culture with K562 cells (K562 or PANC-1 cells): produce more interferon

Compound: O=c1cc(N2CCOCC2)oc2c(-c3ccccc3)cccc12 [LY294002]
- concentration at which NKG2D expression reaches the level of control tCD19 T cells (NKG2D (CD314)): 10 µM

Compound: Nc1cccc(-c2cc3c(Oc4cccc(O)c4)ncnc3[nH]2)c1 [TWS119]
- expansion with downstream inhibitors of the PI3K pathway (NKR-2 T cells): expansion is increased

From patent publication US11639496B2, “Reducing fratricide of immune cells expressing NKG2D-based receptors” (CELYAD S.A, priority 2017, dated 2023)
